Test results as given in ChEMBL document CHEMBL2331227, “Khayseneganins A-H, limonoids from Khaya senegalensis” (2013).
In brackets after ≈: the same amount, converted by molar mass.

Columns and labels:
Format in all cases: functional
Pseudomonas aeruginosa = experiment: Antimicrobial activity against Pseudomonas aeruginosa ATCC 27853 by two-fold dilution method
Staphylococcus aureus [1] = experiment: Antimicrobial activity against methicillin-resistant Staphylococcus aureus isolate 98 by two-fold dilution method
Staphylococcus aureus [2] = experiment: Antimicrobial activity against methicillin-resistant Staphylococcus aureus isolate 92 by two-fold dilution method
Staphylococcus aureus [3] = experiment: Antimicrobial activity against Staphylococcus aureus ATCC 25923 by two-fold dilution method

| Structure (SMILES) | MIC (Pseudomonas aeruginosa) | MIC (Staphylococcus aureus [1]) | MIC (Staphylococcus aureus [2]) | MIC (Staphylococcus aureus [3]) |
| --- | --- | --- | --- | --- |
| COC(=O)C[C@H]1C(C)(C)[C@H](OC(C)=O)[C@@H]2C=C3[C@@H]4CC(=O)O[C@@H](c5ccoc5)[C@]4(C)CC[C@@H]3[C@@]1(C)C2=O | 12.5 µg/mL (≈ 24.4 µM) | 12.5 µg/mL (≈ 24.4 µM) | 12.5 µg/mL (≈ 24.4 µM) | 25 µg/mL (≈ 48.8 µM) |
| COC(=O)C[C@H]1C(C)(C)[C@H](O)[C@@H]2C=C3[C@H]([C@H](OC(C)=O)C[C@]4(C)[C@H]3CC(=O)O[C@H]4c3ccoc3)[C@@]1(C)C2=O [Swietmanin C] | > 50 µg/mL | > 50 µg/mL | > 50 µg/mL | > 50 µg/mL |
| COC(=O)[C@H](O)[C@H]1[C@]2(C)C[C@]3(OC(C)=O)[C@@H]4[C@@](OC)(O[C@]56CC(=O)O[C@@H](c7ccoc7)[C@]5(C)CC[C@H]([C@]13C)[C@@]46O)[C@H]2O (relative stereo) |  | > 50 µg/mL | > 50 µg/mL |  |
| COC(=O)C[C@H]1[C@@]2(C)C[C@]3(O)O[C@@]4(CC(=O)[C@H]2O)[C@H]2CC(=O)O[C@@H](c5ccoc5)[C@]2(C)CC[C@@H]4[C@]13C | > 50 µg/mL | > 50 µg/mL | > 50 µg/mL | > 50 µg/mL |
| COC(=O)[C@H](O)[C@H]1C(C)(C)C(=O)[C@@H]2C[C@]3(O)[C@@H]4CC(=O)O[C@@H](c5ccoc5)[C@]4(C)CC[C@@H]3[C@@]1(C)C2=O [KHAYANONE] | > 50 µg/mL | 25 µg/mL (≈ 49.7 µM) | 25 µg/mL (≈ 49.7 µM) | 25 µg/mL (≈ 49.7 µM) |
| CC(=O)O[C@H]1C[C@@H](OC(C)=O)C(C)(C)[C@@H]2CC(=O)[C@]3(C)[C@H](CC[C@@]4(C)[C@@H](c5ccoc5)OC(=O)[C@H]5O[C@]543)[C@@]12C | 25 µg/mL (≈ 46.1 µM) | 25 µg/mL (≈ 46.1 µM) | 50 µg/mL (≈ 92.1 µM) | 50 µg/mL (≈ 92.1 µM) |
| CC(=O)O[C@H]1C[C@@H](O)C(C)(C)[C@@H]2C[C@@H](OC(C)=O)[C@]3(C)[C@H](CC[C@@]4(C)[C@@H](c5ccoc5)OC(=O)[C@H]5O[C@@]534)[C@@]12C [3-DEACETYLKHIVORIN] | 12.5 µg/mL (≈ 23 µM) | 12.5 µg/mL (≈ 23 µM) | 12.5 µg/mL (≈ 23 µM) | 25 µg/mL (≈ 45.9 µM) |
| COC(=O)C[C@H]1C(C)(C)[C@H](OC(C)=O)[C@]2(O)C=C3[C@H]([C@H](OC(C)=O)C[C@]4(C)[C@H]3CC(=O)O[C@H]4c3ccoc3)[C@@]1(C)C2=O | 25 µg/mL (≈ 42.6 µM) | 25 µg/mL (≈ 42.6 µM) | 25 µg/mL (≈ 42.6 µM) | 25 µg/mL (≈ 42.6 µM) |
| CC(=O)O[C@H]1C[C@@H](O)C(C)(C)[C@@H]2C[C@@H](O)[C@]3(C)[C@H](CC[C@@]4(C)[C@@H](c5ccoc5)OC(=O)[C@H]5O[C@@]534)[C@@]12C | > 50 µg/mL | > 50 µg/mL | > 50 µg/mL | > 50 µg/mL |
| CC(=O)O[C@@H]1C[C@H](O)[C@]2(C)[C@H]3CC[C@@]4(C)[C@@H](c5ccoc5)OC(=O)[C@H]5O[C@]54[C@]3(C)[C@H](OC(C)=O)C[C@H]2C1(C)C | 25 µg/mL (≈ 45.9 µM) | 12.5 µg/mL (≈ 23 µM) | 25 µg/mL (≈ 45.9 µM) | 25 µg/mL (≈ 45.9 µM) |
| COC(=O)[C@H](O)[C@@H]1[C@@]2(C)[C@H]3CC[C@]4(C)C(=CC(=O)O[C@H]4c4ccoc4)[C@]3(O)[C@H]3[C@@H](O)C(=O)[C@@]1(C)C[C@]32OC(C)=O (relative stereo) | > 50 µg/mL | > 50 µg/mL | > 50 µg/mL | > 50 µg/mL |
| CC1(C)C(=O)[C@@H]2C[C@@]34O[C@]2(O)[C@]2(COC(=O)C[C@@H]12)[C@H]3CC[C@]1(C)[C@H]4CC(=O)O[C@H]1c1ccoc1 [SENEGANOLIDE] | > 50 µg/mL | > 50 µg/mL | > 50 µg/mL | > 50 µg/mL |
| C=C1[C@H]2CC[C@]3(C)[C@H](c4ccoc4)OC(=O)C[C@@]13O[C@H]1CC(=O)OC(C)(C)[C@@H](CC(=O)OC)[C@@]12C [METHYL IVORENSATE] | > 50 µg/mL | > 50 µg/mL | > 50 µg/mL | > 50 µg/mL |
| C=C1[C@@H]2CC[C@@]3(C)[C@H](c4ccoc4)OC(=O)C[C@]13O[C@H]1CC(=O)OC(C)(C)[C@H]([C@@H](O)C(=O)OC)[C@]12C (relative stereo) | 25 µg/mL (≈ 49.7 µM) | 50 µg/mL (≈ 99.5 µM) | 25 µg/mL (≈ 49.7 µM) | 50 µg/mL (≈ 99.5 µM) |
| COC(=O)[C@@H](OC(C)=O)[C@H]1C(C)(C)C(=O)[C@@H]2C=C3[C@@H]4CC(=O)O[C@@H](c5ccoc5)[C@]4(C)CC[C@@H]3[C@@]1(C)C2=O [khayalenoid E] | 25 µg/mL (≈ 47.5 µM) | 25 µg/mL (≈ 47.5 µM) | 25 µg/mL (≈ 47.5 µM) | 25 µg/mL (≈ 47.5 µM) |
| COC(=O)[C@H](O)[C@H]1C(C)(C)[C@H](OC(C)=O)[C@@H]2CC3=C4CC(=O)O[C@@H](c5ccoc5)[C@]4(C)CC[C@@H]3[C@@]1(C)C2=O [SWIETENOLIDE-3-ACETATE] | 25 µg/mL (≈ 47.3 µM) | 25 µg/mL (≈ 47.3 µM) | 25 µg/mL (≈ 47.3 µM) | 25 µg/mL (≈ 47.3 µM) |
| COC(=O)C[C@H]1C(C)(C)[C@H](OC(C)=O)[C@@H]2C=C3[C@H]([C@H](OC(C)=O)C[C@]4(C)[C@H]3CC(=O)O[C@H]4c3ccoc3)[C@@]1(C)C2=O [SWIETMANIN B] | 12.5 µg/mL (≈ 21.9 µM) | 12.5 µg/mL (≈ 21.9 µM) | 50 µg/mL (≈ 87.6 µM) | 25 µg/mL (≈ 43.8 µM) |
| CN[C@H](CC(C)C)C(=O)N[C@H]1C(=O)N[C@@H](CC(N)=O)C(=O)N[C@H]2C(=O)N[C@H]3C(=O)N[C@H](C(=O)N[C@H](C(=O)O)c4cc(O)cc(O)c4-c4cc3ccc4O)[C@H](O)c3ccc(c(Cl)c3)Oc3cc2cc(c3O[C@@H]2O[C@H](CO)[C@@H](O)[C@H](O)[C@H]2O[C@H]2C[C@](C)(N)[C@H](O)[C@H](C)O2)Oc2ccc(cc2Cl)[C@H]1O.Cl [VANCOMYCIN HYDROCHLORIDE] | 25 µg/mL | 0.78 µg/mL | 0.78 µg/mL | 0.78 µg/mL |
